Data as given in PubChem BioAssay (NCI).
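Step 1: Grow cells in 96-well plates. Step 2: Expose to compound for 48 hours at 5 concentrations. Step 3: Interpolate endpoints linearly; if unreached, use highest concentration. At the GI50, growth is halved. At the TGI there is no net growth.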

How the values were obtained:
Test in all cases: NCI tumour cell line growth inhibition, 48 h
A549 NSCLC = test system: A549 NSCLC
NCI-H226 lung = test system: NCI-H226 lung
HL-60(TB) leukemia = test system: HL-60(TB) leukemia
UACC-62 melanoma = test system: UACC-62 melanoma
SF-539 CNS = test system: SF-539 CNS
MCF7 breast = test system: MCF7 breast
NCI-H23 lung = test system: NCI-H23 lung
UO-31 renal = test system: UO-31 renal
KM12 colon = test system: KM12 colon
UACC-257 melanoma = test system: UACC-257 melanoma
NCI/ADR-RES ovarian = test system: NCI/ADR-RES ovarian
SK-MEL-28 melanoma = test system: SK-MEL-28 melanoma
786-0 renal = test system: 786-0 renal
NCI-H460 lung = test system: NCI-H460 lung
SW-620 colon = test system: SW-620 colon
SK-MEL-5 melanoma = test system: SK-MEL-5 melanoma
EKVX NSCLC = test system: EKVX NSCLC
OVCAR-3 ovarian = test system: OVCAR-3 ovarian
K-562 leukemia = test system: K-562 leukemia
MDA-MB-231 breast = test system: MDA-MB-231 breast
OVCAR-5 ovarian = test system: OVCAR-5 ovarian
DU-145 prostate = test system: DU-145 prostate
SF-295 CNS = test system: SF-295 CNS
SN12C renal = test system: SN12C renal
MALME-3M melanoma = test system: MALME-3M melanoma
LOX IMVI melanoma = test system: LOX IMVI melanoma
A498 renal = test system: A498 renal
T-47D breast = test system: T-47D breast
HT29 colon = test system: HT29 colon
MDA-MB-435 = test system: MDA-MB-435
SNB-19 CNS = test system: SNB-19 CNS
HCT-15 colon = test system: HCT-15 colon
BT-549 breast = test system: BT-549 breast
HCT-116 colon = test system: HCT-116 colon
CAKI-1 renal = test system: CAKI-1 renal
NCI-H522 lung = test system: NCI-H522 lung
RPMI-8226 leukemia = test system: RPMI-8226 leukemia
U251 CNS = test system: U251 CNS
OVCAR-8 ovarian = test system: OVCAR-8 ovarian
COLO 205 colon = test system: COLO 205 colon
HOP-62 NSCLC = test system: HOP-62 NSCLC
HCC-2998 colon = test system: HCC-2998 colon
HS 578T breast = test system: HS 578T breast
PC-3 prostate = test system: PC-3 prostate
IGROV1 ovarian = test system: IGROV1 ovarian
TK-10 renal = test system: TK-10 renal
SR leukemia = test system: SR leukemia
M14 melanoma = test system: M14 melanoma
SF-268 CNS = test system: SF-268 CNS
SK-MEL-2 melanoma = test system: SK-MEL-2 melanoma
CCRF-CEM leukemia = test system: CCRF-CEM leukemia
ACHN renal = test system: ACHN renal
MOLT-4 leukemia = test system: MOLT-4 leukemia
HOP-92 NSCLC = test system: HOP-92 NSCLC
RXF 393 renal = test system: RXF 393 renal
SNB-75 CNS = test system: SNB-75 CNS
SK-OV-3 ovarian = test system: SK-OV-3 ovarian
OVCAR-4 ovarian = test system: OVCAR-4 ovarian

With CCOC(=O)C(CO)c1nc2c([nH]c1=O)c(=O)n(C)c(=O)n2C (stereo unspecified) the TGI (A549 NSCLC) was > 100 µM, the TGI (NCI-H226 lung) was > 100 µM and the TGI (HL-60(TB) leukemia) was > 100 µM. For the same compound, the TGI (UACC-62 melanoma) was > 100 µM, the TGI (SF-539 CNS) was > 100 µM and the TGI (MCF7 breast) was > 100 µM. The TGI (NCI-H23 lung) was > 100 µM, the TGI (UO-31 renal) was > 100 µM and the TGI (KM12 colon) was > 100 µM. The TGI (UACC-257 melanoma) was > 100 µM, the TGI (NCI/ADR-RES ovarian) was > 100 µM and the TGI (SK-MEL-28 melanoma) was > 100 µM. The TGI (786-0 renal) was > 100 µM, the TGI (NCI-H460 lung) was > 100 µM and the TGI (SW-620 colon) was > 100 µM. The TGI (SK-MEL-5 melanoma) was > 100 µM, the TGI (EKVX NSCLC) was > 100 µM and the TGI (OVCAR-3 ovarian) was > 100 µM. The TGI (K-562 leukemia) was > 100 µM, the TGI (MDA-MB-231 breast) was > 100 µM and the TGI (OVCAR-5 ovarian) was > 100 µM. For the same compound, the TGI (DU-145 prostate) was > 100 µM, the TGI (SF-295 CNS) was > 100 µM and the TGI (SN12C renal) was > 100 µM. For the same compound, the TGI (MALME-3M melanoma) was > 100 µM, the TGI (LOX IMVI melanoma) was > 100 µM and the TGI (A498 renal) was > 100 µM. For the same compound, the TGI (T-47D breast) was 60.8 µM, the TGI (HT29 colon) was > 100 µM and the TGI (MDA-MB-435) was > 100 µM. The TGI (SNB-19 CNS) was > 100 µM, the TGI (HCT-15 colon) was > 100 µM and the TGI (BT-549 breast) was > 100 µM. For the same compound, the TGI (HCT-116 colon) was > 100 µM, the TGI (CAKI-1 renal) was > 100 µM and the TGI (NCI-H522 lung) was > 100 µM. The TGI (RPMI-8226 leukemia) was > 100 µM, the TGI (U251 CNS) was > 100 µM and the TGI (OVCAR-8 ovarian) was > 100 µM. For the same compound, the TGI (COLO 205 colon) was > 100 µM, the TGI (HOP-62 NSCLC) was > 100 µM and the TGI (HCC-2998 colon) was > 100 µM. For the same compound, the TGI (HS 578T breast) was > 100 µM, the TGI (PC-3 prostate) was > 100 µM and the TGI (IGROV1 ovarian) was > 100 µM. For the same compound, the TGI (TK-10 renal) was > 100 µM, the TGI (SR leukemia) was > 100 µM and the TGI (M14 melanoma) was > 100 µM. For the same compound, the TGI (SF-268 CNS) was > 100 µM, the TGI (SK-MEL-2 melanoma) was > 100 µM and the TGI (CCRF-CEM leukemia) was > 100 µM. For the same compound, the TGI (ACHN renal) was > 100 µM.

C=C1C(=O)O[C@H]2[C@H]1CC/C(COC(=O)NCc1ccc(Cn3c(=O)sn(CCCCl)c3=O)cc1)=C\CC[C@@]1(C)O[C@@H]21 showed a GI50 (A549 NSCLC) of 19.2 µM, a TGI (A549 NSCLC) of 34.6 µM and a GI50 (NCI-H226 lung) of 16.6 µM. The TGI (NCI-H226 lung) was 42.6 µM, the GI50 (HL-60(TB) leukemia) was 0.967 µM and the TGI (HL-60(TB) leukemia) was 3.77 µM. For the same compound, the GI50 (UACC-62 melanoma) was 1.44 µM, the TGI (UACC-62 melanoma) was 2.8 µM and the GI50 (SF-539 CNS) was 1.74 µM. The TGI (SF-539 CNS) was 3.3 µM, the GI50 (MCF7 breast) was 1.71 µM and the TGI (MCF7 breast) was 4.54 µM. The GI50 (MOLT-4 leukemia) was 1.5 µM, the TGI (MOLT-4 leukemia) was 5.41 µM and the GI50 (NCI-H23 lung) was 2.33 µM. The TGI (NCI-H23 lung) was 5.36 µM, the GI50 (UO-31 renal) was 1.4 µM and the TGI (UO-31 renal) was 2.75 µM. For the same compound, the GI50 (KM12 colon) was 4.92 µM, the TGI (KM12 colon) was 17.5 µM and the GI50 (UACC-257 melanoma) was 1.61 µM. The TGI (UACC-257 melanoma) was 3.41 µM, the GI50 (NCI/ADR-RES ovarian) was 26.9 µM and the TGI (NCI/ADR-RES ovarian) was > 100 µM. For the same compound, the GI50 (SK-MEL-28 melanoma) was 1.69 µM, the TGI (SK-MEL-28 melanoma) was 3.16 µM and the GI50 (786-0 renal) was 1.48 µM. It also gave a TGI (786-0 renal) of 2.9 µM, a GI50 (HOP-92 NSCLC) of 1.1 µM and a TGI (HOP-92 NSCLC) of 2.47 µM. It also gave a GI50 (NCI-H460 lung) of 11.3 µM, a TGI (NCI-H460 lung) of 30.5 µM and a GI50 (SW-620 colon) of 1.23 µM. For the same compound, the TGI (SW-620 colon) was 3.31 µM, the GI50 (SK-MEL-5 melanoma) was 3.72 µM and the TGI (SK-MEL-5 melanoma) was 14.1 µM. The GI50 (EKVX NSCLC) was 2.82 µM, the TGI (EKVX NSCLC) was 12.2 µM and the GI50 (OVCAR-3 ovarian) was 0.776 µM. The TGI (OVCAR-3 ovarian) was 2.09 µM, the GI50 (K-562 leukemia) was 0.726 µM and the TGI (K-562 leukemia) was > 100 µM. For the same compound, the GI50 (MDA-MB-231 breast) was 1.72 µM, the TGI (MDA-MB-231 breast) was 3.33 µM and the GI50 (OVCAR-5 ovarian) was 2.64 µM. For the same compound, the TGI (OVCAR-5 ovarian) was 5.95 µM, the GI50 (DU-145 prostate) was 1.64 µM and the TGI (DU-145 prostate) was 3.15 µM. It also gave a GI50 (SF-295 CNS) of 17.7 µM, a TGI (SF-295 CNS) of 31.7 µM and a GI50 (SN12C renal) of 1.36 µM. For the same compound, the TGI (SN12C renal) was 3.15 µM, the GI50 (MALME-3M melanoma) was 1.34 µM and the TGI (MALME-3M melanoma) was 3.05 µM. It also gave a GI50 (LOX IMVI melanoma) of 1.58 µM, a TGI (LOX IMVI melanoma) of 3.09 µM and a GI50 (A498 renal) of 2.83 µM. For the same compound, the TGI (A498 renal) was 11.8 µM, the GI50 (T-47D breast) was 1.97 µM and the TGI (T-47D breast) was 5.58 µM. It also gave a GI50 (HT29 colon) of 2.46 µM, a TGI (HT29 colon) of 5.58 µM and a GI50 (MDA-MB-435) of 1.8 µM. It also gave a TGI (MDA-MB-435) of 3.89 µM, a GI50 (SNB-19 CNS) of 4.84 µM and a TGI (SNB-19 CNS) of 17.4 µM. For the same compound, the GI50 (HCT-15 colon) was 1.94 µM, the TGI (HCT-15 colon) was 4.25 µM and the GI50 (BT-549 breast) was 1.48 µM. The TGI (BT-549 breast) was 2.91 µM, the GI50 (HCT-116 colon) was 0.565 µM and the TGI (HCT-116 colon) was 1.87 µM. For the same compound, the GI50 (RXF 393 renal) was 1.35 µM, the TGI (RXF 393 renal) was 2.8 µM and the GI50 (CAKI-1 renal) was 2.05 µM. The TGI (CAKI-1 renal) was 5.33 µM, the GI50 (SNB-75 CNS) was 2.03 µM and the TGI (SNB-75 CNS) was 11.4 µM. The GI50 (NCI-H522 lung) was 0.538 µM, the TGI (NCI-H522 lung) was 1.94 µM and the GI50 (RPMI-8226 leukemia) was 0.764 µM. It also gave a TGI (RPMI-8226 leukemia) of 3.1 µM, a GI50 (U251 CNS) of 5.05 µM and a TGI (U251 CNS) of 17.2 µM. It also gave a GI50 (OVCAR-8 ovarian) of 2.32 µM, a TGI (OVCAR-8 ovarian) of 5.42 µM and a GI50 (COLO 205 colon) of 2.04 µM. It also gave a TGI (COLO 205 colon) of 3.92 µM, a GI50 (HOP-62 NSCLC) of 13.9 µM and a TGI (HOP-62 NSCLC) of 27.5 µM. It also gave a GI50 (HCC-2998 colon) of 7.83 µM, a TGI (HCC-2998 colon) of 21.4 µM and a GI50 (HS 578T breast) of 5.64 µM. The TGI (HS 578T breast) was 49 µM, the GI50 (SK-OV-3 ovarian) was 18.3 µM and the TGI (SK-OV-3 ovarian) was 32.2 µM. It also gave a GI50 (PC-3 prostate) of 2.13 µM, a TGI (PC-3 prostate) of 5.05 µM and a GI50 (IGROV1 ovarian) of 1.78 µM. For the same compound, the TGI (IGROV1 ovarian) was 3.88 µM, the GI50 (TK-10 renal) was 1.75 µM and the TGI (TK-10 renal) was 3.34 µM. The GI50 (M14 melanoma) was 1.93 µM, the TGI (M14 melanoma) was 4.5 µM and the GI50 (SF-268 CNS) was 2.63 µM. For the same compound, the TGI (SF-268 CNS) was 10.3 µM, the GI50 (SK-MEL-2 melanoma) was 4.83 µM and the TGI (SK-MEL-2 melanoma) was 17.4 µM. It also gave a GI50 (OVCAR-4 ovarian) of 1.67 µM, a TGI (OVCAR-4 ovarian) of 3.83 µM and a GI50 (CCRF-CEM leukemia) of 0.577 µM. For the same compound, the TGI (CCRF-CEM leukemia) was 4.03 µM, the GI50 (ACHN renal) was 1.66 µM and the TGI (ACHN renal) was 3.05 µM.
